Calls of active or inactive are those of the source.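 Rule for the calls: active = area under the green fluorescent protein level over time curve over 15% above untreated cells; inactive = the rest.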 Peptide text beside a SMILES is read from it. * marks the point of attachment. Cbz = O=C(OCc1ccccc1)*
Test system: S. cerevisiae Sic1-GFP degradation, flow cytometry time course
Experiment: yeast Sic1MUS-GFP fusion turnover – flow cytometry, Sic1MUS mutant, S. cerevisiae, mechanism study for 26S proteasome disassembly project, confirmation (AID 1312)

CC(=O)N1C(=O)C(=C2C=C(C)OC(C)=C2)c2ccccc21
outcome: active; degradation inhibitor

CC(C)C[C@@H](C=O)NC(=O)[C@H](CC(C)C)NC(=O)[C@H](CC(C)C)NC(=O)OCc1ccccc1 (Cbz-Leu-Leu-Leu-aldehyde)
outcome: inactive

From PubChem BioAssay AID1312 (NMMLSC, 2008)
